Values belong to the compound of their own block, whether it stands above or below them.
Columns and labels:
[1] = test system: P. falciparum sphingomyelin synthase; test: Inhibition of plasmodial sphingomyelin biosynthesis in intact infected erythrocytes (C6-NBD-ceramide to C6-NBD-sphingomyelin); format: cell-based, Plasmodium falciparum; settings: for effect on sphingomyelin synthase enzyme activity: 5 μM compound (Example 3); for [%] inhibition of sphingomyelin biosynthetic activity: 5 μM compound
Procedure: 1×10^8 infected cells 24 h after invasion were washed serum-free in RPMI 1640 and preincubated for thirty min at 37° C. in 1 ml of RPMI 1640 containing 0-5 μM or 0-500 μM of PPMP. (C6-NBD-ceramide (N-[7-(4-nitrobenzo-2-oxa-1,3-diazide)]-6-aminocaproyl-D-erythro-sphingosine) was added to each sample at a final concentration of 5 μM, the samples further incubated for 30 min at 37° C. and cellular lipids extracted. C6-NBD-sphingomyelin was resolved by TLC and quantitated by fluorescence spectrophotometry as described previously. Bligh, E. G. and Dyer, W. Y. (1959) A rapid method for total lipid extraction and purification., Can. J. Biochem. Physiol. 37: 911-917. Haldar, K., Uyetake, L., Ahori, N., Elmendorf, H. G. and Lu, W-1. (1991) The accumulation and metabolism of a fluorescent ceramide derivative in Plasmodium falciparum-infected erythrocytes., Mo. Biochem. Parasitol. 49: 143-156. Elmendorf, H. G. and Haldar, K. (1994) Plasmodium falciparum exports the Golgi marker sphingomyelin synthase into a tubovesicular network in the cytoplasm of mature erythrocytes., J. Cell Biol. 124: 449-462. Each value obtained represented the mean of triplicate determinations from five experiments. The arrow bars indicate the standard deviations. The results are depicted in FIG. 1.
(§1) P. falciparum strain FCB was used for all experiments and cultured in vitro in according to a modification of the method of Trager and Jensen left off. Trager, W. and Jensen, J. B. (1976) Human malaria in continuous culture., Science (Wash. D.C.) 193: 673-675 Haldar, K., Ferguson, M. A. J. and Cross, G. A. M. (1985) Acylation of a Plasmodium falciparum merozoite surface antigen via sn-1, 2-diacyl glycerol. J. Biol. Chem. 260; 4969-4974 The culture medium contained RPMI 1640 supplemented with 25 Mm hepes, Ph 7.4/[…]/92 μM hypoxanthine/0.18% sodium bicarbonate/25 μM gentamicin and 10% AB^+ human sera. The parasites were grown in A^+ erythrocytes at 2.5-5% hematocrit. Parasite cultures were synchronized by separation of the early and late stages on a Percoll gradient. The subsequent reincubation of these stages in culture were used to obtain cells 12-24h in the life cycle. Inhibition of sphingomyelin biosynthetic activity using 5 μM of the various compounds was carried out as described in Example 1. 5 μM of the various compounds were added to 0-12 h rings in the culture medium and cells were examined by Giemsa staining after 24 h.

P. falciparum strain FCB = test: Inhibition of intraerythrocytic growth in culture (Giemsa staining after 24 h); format: cell-based, Plasmodium falciparum; settings: 5 μM compound added to 0-12 h rings
Description: as §1

DNA synthesis = test: Effect on DNA synthesis; format: cell-based
protein synthesis = test: Effect on protein synthesis; format: cell-based
P. falciparum schizonts = test: Schizont maturation, merozoite invasion and ring viability in the presence of drug; format: cell-based, Plasmodium falciparum; settings: for fate of schizonts greater than 40 h in the cycle: in the presence of 5 μM drug
[2] = test system: tubovesicular membrane reticulum (TVM) of P. falciparum-infected erythrocytes; test: Tubovesicular membrane (TVM) morphology by confocal microscopy with C5-DMB-ceramide; format: cell-based, Plasmodium falciparum; settings: 5 μM PPMP; C5 DMB-ceramide staining; 240 optical sections, 20 cells
Procedure: Schizont-stage parasites isolated over Percoll were allowed to invade in the presence of RPMI 1640 containing 10% human serum or in the presence of RPMI 1640 containing 10% human serum and 5 μM PPMP. 1×10^8 infected erythrocytes of the appropriate stage were incubated in 1 ml of RPMI 1640 supplemented with 2 mg/ml defatted BSA and 20 μM C5 -DMB-ceramide. Cells were washed and fixed as described in Example 5. Sequential micrographs were taken on a custom made laser confocal microscope at 400 nm intervals along the Z axis. Raw data were processed as described previously.

[3] = test system: P. falciparum sphingomyelin synthase; test: Inhibition of sphingomyelin biosynthesis in hypotonically lysed infected erythrocytes and fractions; format: biochemical, Plasmodium falciparum
Procedure: Cells were washed serum-free in PBS and intact cells were incubated in PBS. Cells were lysed in 10 volumes of hypotonic buffer. Pellets and supernatants were separated by centrifugation at 10^4 ×G for 10 min at 4° C. Inhibition of sphingomyelin biosynthetic activity was carried out as described in Example 1. Glutamate dehydrogenase, a parasite cytosolic activity, was assayed using 10 μM alpha-ketoglutarate and 0.1 μM NADPH for 1 h at 37° C. by measuring the absorption at 340 nm in a spectrophotometer. The following table indicates the results

P. falciparum = test: Intraerythrocytic development in long term culture, parasitemia over consecutive cycles; format: cell-based, Plasmodium falciparum
Procedure: Synchronized cultures 12 h after invasion were subjected to different concentrations of PPMP. Parasitemias of drug-treated cultures were determined at various time points during two intraerythrocytic cycles and compared to cells grown in the absence of drug.
The effect of the single lipid analogs to inhibit parasite development in long term culture in consecutive cycles of the parasite growth were investigated. The studies were initiated with synchronized, young rings (0-12 h) at 10% parasitemia. In order to ensure healthy growth of the malaria parasite in vitro, the parasitemias of the cultures are not allowed to exceed 10%. Yet under normal conditions a 3-6 fold increase in parasitemias is detected with each round of invasion: thus for each new cycle, the cultures were diluted 4-fold into fresh erythrocytes in the absence or presence of the drug. […] The lowest effective, killing concentration of PDMP over three cycles of growth is 1.0 μM.

effect on sphingomyelin synthase enzyme activity [1]: no effect
SMILES: CCCCCCCCCCCCCCC[C@H](O)[C@@H](N)CO (racemic) [dl-dihydrosphingosine]
[%] inhibition of sphingomyelin biosynthetic activity ([1]; infected erythrocytes): 4%
[%] inhibition of growth (P. falciparum strain FCB): 8%

SMILES: CCCCCCCCCC(=O)N[C@H](CN1CCOCC1)[C@H](O)c1ccccc1 (relative stereo) [PDMP, dl-threo-1-phenyl-2-decanoylamino-3-morpholino-1-propanol]
[%] inhibition of sphingomyelin biosynthetic activity ([1]; infected erythrocytes): 31%
inhibition of DNA synthesis (DNA synthesis): not inhibitory
inhibition of protein synthesis (protein synthesis): not inhibitory
fate of schizonts greater than 40 h in the cycle (P. falciparum schizonts): mature and rupture

SMILES: CCCCCCCCCCCCCCCC(=O)N[C@H](CN1CCOCC1)[C@H](O)c1ccccc1 (relative stereo) [PPMP, dl-threo-1-phenyl-2-palmitoylamino-3-morpholino-1-propanol]
TVM morphology of rings formed in the presence of drug [2]: markedly devoid of tubular connections
[%] inhibition of sphingomyelin biosynthetic activity ([1]; infected erythrocytes): 36%
total cellular sphingomyelin synthase activity inhibited ([1]; 500 μM PPMP, infected erythrocytes): 80-90%
change of sphingomyelin synthase activity ([1]; 0.05-0.5 μM PPMP, infected erythrocytes): initial, rapid decrease
average inhibition of sphingomyelin synthase activity ([1]; 1-5 μM PPMP, infected erythrocytes): 35%
concentration at which the sensitive pool of sphingomyelin synthase activity is completely inhibited ([1]; infected erythrocytes): 1 to 5 µM
inhibition of sphingomyelin biosynthesis at 5 μM PPMP [%] ([1]; intact cells, 5 μM PPMP): 35%
inhibition of sphingomyelin biosynthesis at 5 μM PPMP [%] ([3]; hypotonic lysates): 33%
inhibition of sphingomyelin biosynthesis at 5 μM PPMP [%] ([3]; pellet of lysate (10^4 xG)): 30%
inhibition of sphingomyelin biosynthesis at 5 μM PPMP [%] ([3]; supernatant of lysate (10^4 xG)): 3%
effect on development of trophozoite stage parasites (P. falciparum): blocks
relative efficacy in long term growth inhibition (P. falciparum): more effective than PDMP
effect on rings in their first cycle growth (P. falciparum; 5 μM drug): completely inhibits
development through the first cycle (P. falciparum; concentrations as low as 0.05 μM): do not stop development through the first cycle
effect on schizont maturation or merozoite invasion into erythrocytes (P. falciparum schizonts; 5 μM PPMP): not to block
fate of schizonts greater than 40 h in the cycle (P. falciparum schizonts): mature and rupture
development of rings after being washed free of the drug (P. falciparum schizonts; rings formed in 5 μM PPMP): developed normally

SMILES: CCCCCCCCCC(=O)N[C@@H](CN1CCOCC1)[C@H](O)c1ccccc1 (relative stereo) [dl-erythro-PDMP]
effect on sphingomyelin synthase enzyme activity [1]: no effect
[%] inhibition of sphingomyelin biosynthetic activity ([1]; infected erythrocytes): 3%

SMILES: CCN(CC)CCO[C@H]1CC[C@@]2(C)C(=CC[C@@H]3[C@@H]2CC[C@]2(C)C(=O)CC[C@@H]32)C1 [U 18666 A]
effect on sphingomyelin synthase enzyme activity [1]: no effect
[%] inhibition of sphingomyelin biosynthetic activity ([1]; infected erythrocytes): 0%

SMILES: CN(C)CCCN1c2ccccc2CCc2ccccc21 [imipramine]
effect on sphingomyelin synthase enzyme activity [1]: no effect
[%] inhibition of sphingomyelin biosynthetic activity ([1]; infected erythrocytes): 0%

SMILES: CCCCCCCCCCCCC/C=C/[C@@H](O)[C@@H](N)CO [sphingosine]
effect on sphingomyelin synthase enzyme activity [1]: no effect
[%] inhibition of sphingomyelin biosynthetic activity ([1]; infected erythrocytes): 0%

SMILES: CCCCCCCCCCCCCCCCCCN [stearylamine]
effect on sphingomyelin synthase enzyme activity [1]: no effect
[%] inhibition of sphingomyelin biosynthetic activity ([1]; infected erythrocytes): 0%

Source: patent US5976781A, “Determining plasmodium in blood by sphingomyelin synthase activity” (The Board of Trustees of the Leland Stanford Junior …, priority 1995, dated 1999)
